pIC50: −log10 of the molar value. Activity calls are given as the source filed them. The rule behind the calls is not given here.
Experiments:
[1] = tested on: MV4-11; test: Antitumor activity against human MV4-11 cells xenografted in Balb/c nude mouse assessed as tumor weight at 20 mg/kg, ip administered once daily for 20 days (reference value: 1.30 +/- 0.51 g); format: functional; conditions: time 20 day
[2] = tested on: OCI-Ly10; test: Antiproliferative activity against human OCI-Ly10 cells assessed as inhibition of cell growth incubated for 7 days by MTS reagent based assay; format: functional; conditions: OCI-Ly10, 168 h
[3] = tested on: Mus musculus; test: Upregulation of C-myc expression in Balb/c nude mouse tumor xenografted with human MV4-11 cells at 20 mg/kg, ip administered once daily for 20 days by Western blot analysis; format: functional, organism-based; conditions: time 20.0 day
[4] = tested on: MV4-11; test: Downregulation of AXIN2 expression level in human MV4-11 cells at 0.1 to 10 nM measured after 24 to 48 hrs by Western blot analysis; format: functional, cell-based; conditions: dose 0.1-10 nM, time 24-48 hrs

Structure (SMILES): COc1cc(-c2cn(C)c(=O)c3ccccc23)cc(OC)c1CN1CCC(CN2CCC(c3ccc4c5c(cccc35)C(=O)N4C3CCC(=O)NC3=O)CC2)CC1 (centres undefined)
- Activity [1]: 0.9 g
- pIC50 [2]: 8.98
- Activity [3]: Active
- Activity [4]: Active
